Test results as given in patent US20050075312A1, “Antitumor inhibitors and use thereof” (priority 2003, published 2005).
“And” between values parts separate entries of the source, which are not always exact repeats. Equal values may be shown once.

What was measured:
[1] = tested on: chick embryonic angiogenesis; assay: chorioallantoic membrane (CAM) assay; type: in vivo, chicken; conditions: for Eggs showing antiangiogenesis: avascular zone exceeded 3 mm
Experimental: The effect of acharan sulfate on the inhibition of angiogenesis was performed using the choroioallantoic membrane (CAM) assay. These assays essentially followed previously published procedures (Tanaka et al, 1986; Oikawa et al., 1990). In brief, fertilized chicken eggs were incubated in the constant humidified breeder at 37° C. On the third day of incubation, about 2 ml of egg albumin were aspirated by an 18-gauge hypodermic needle, to detach the developing CAM from the shell. One and half days later, sample-loaded thermanox coverslips (Nunc, Naperville, Ill.) were air-dried and applied to the CAM surface for testing of angiogenesis inhibition by AS. Two days later, 1 ml of 10% fat emulsion (Intralipose) was injected into the chorioallantoic membrane and the avascular zone was observed under a dissecting microscope. Inhibition of angiogenesis was assessed when the avascular zone exceeded 3 mm. In order to abolish the possibility of contaminant in AS, the depolymerized product by heparinase II as described above was also tested for the antiangiogenic activity. The concentration of AS used in this assay was selected based on the concentration of heparin that had previously been applied in the same assay (Collen et al., 2000).
On day 4.5, CAMs were treated with different doses of AS for 2 days. The dose-response relationship for the appearance of avascular zone was determined.

[2] = tested on: bFGF-induced angiogenesis; assay: mouse matrigel plug assay; type: in vivo, C57BL/6J mice
Experimental: The effect of acharan sulfate on the inhibition of angiogenesis was also evaluated in the matrigel plug assay. This assay was performed as previously described (Passaniti et al., 1992). Acharan sulfate, dissolved in water, bFGF and heparin, dissolved in 0.1% bovine serum albumen (BSA)/phosphate buffered saline (PBS) were mixed with liquid matrigel (Collaborative Biomedical Products, Bedford, Mass.) in proportions not exceeding 1% of the total volume of matrigel. A mixture of 0.5 ml matrigel with AS or vehicle was injected subcutaneously into C57BL/6J mice. After injection, the matrigel rapidly formed a plug. […] The amount of hemoglobin (Hb) inside the matrigel was measured using the Drabkin method (Drabkin and Austin, 1932) and Drabkin reagent 525 for the quantitation of blood vessel formation. The concentration of Hb was calculated based on a Hb standard measured simultaneously.
To evaluate the effect of AS on ongoing angiogenic process in the mouse matrigel plug assay matrigel, heparin (10 units/500 μl), and bFGF (100 ng/500 μl) with or without AS were injected s.c. into C57BL/6 mice. […] We next measured the hemoglobin content inside the matrigel plugs to quantify the angiogenesis. Whereas bFGF and heparin increased Hb concentration to 11.8 g/dl and the Hb concentration inside the control was 0.3 g/dl, AS decreased the heparin and bFGF-elevated Hb quantity to about 8.6 g/dl (FIG. 3). […]

[3] = tested on: calf pulmonary artery endothelial (CPAE) cells; assay: CPAE cell proliferation by MTT assay; type: cell-based; conditions: for growth inhibition: 3-day treatment
Experimental: The effect of acharan sulfate on in vitro cell proliferation was carried out using calf pulmonary artery endothelial (CPAE) cells as follows.
CPAE cells were seeded in a 24 well plate at a cell density of 10^5 cells/well in 90% RPMI and 10% FBS. After 24 h incubation, the cells were treated with various concentrations of AS. Three days later, new media and MTT solution were added to each well. After incubation at 37° C. for 4 h, the absorbance of treated cells at 540 nm was compared to that of control cells.

[4] = tested on: Lewis lung carcinoma cells; assay: tumor growth in Lewis lung carcinoma-bearing mice; type: in vivo, C57BL/6 mice; conditions: for tumor volume: saline 4534.4; for mean tumor weight reduction: day 21, vs saline; for tumor weight: day 21, saline 4.5±0.7
Experimental: Male C57BL/6 mice were inoculated s.c. in the back with LLC cells (1×10^6/animal) on day 0. After tumor volume was at least 60-100 mm^3, AS was administered into the subcutaneous region near the tumor mass at two doses of 10 and 30 mg/kg for 15 days. The size of tumors in all groups was measured using a dial-caliper and the volume of tumors was determined using the formula width^2×length×0.52 (Voest et al., 1995; Cao et al., 1995). The effects of AS on tumor growth and host survival were also measured by evaluating tumor volumes, tumor weights and percentage increase in lifespan of tumor hosts, respectively (Oguchi et al., 1987; Kusumoto, 1991). For calculating the survival time, mice were inoculated i.p. with […] sarcoma 180 cells/mouse on day 0 and the treatment with two doses of AS (50 and 100 mg/kg, i.p.) were started 24 h after inoculation for nine consecutive days. The control group was treated with saline. Median survival time (MST) for each group (n=7) was observed and the antitumor activity of the test compounds were compared with that of control group by measuring the increase in lifespan.

sarcoma 180 = assay: solid tumor induced by sarcoma 180 tumor cells; type: in vivo, ICR mice; conditions: for tumor weight: control 7.1±0.1; for tumor weight / tumor volume: mean±S.E.M.; for tumor volume: control 8804±465.3
Experimental: For solid tumor development, ICR mice were injected with 0.1 ml of sarcoma 180 suspensions into the right hind limbs. After 6 days of tumor transplantation, mice randomized into six groups were injected i.p. with AS (50 and 100 mg/kg) and 5-FU (25 mg/kg) once a day for 9 days. Eight days later after treatment, animals were sacrificed by cervical […], and solid tumors were removed and weighed.

[5] = tested on: sarcoma 180 ascitic tumor; assay: survival time of mice with sarcoma 180 ascitic tumor; type: in vivo
matrix metalloprotease = assay: antiprotease activity; type: biochemical
[6] = tested on: Lewis lung carcinoma cells; assay: tumor growth in Lewis lung carcinoma-bearing mice; type: in vivo, C57BL/6 mice; conditions: for tumor growth inhibited (volume): vs saline
bFGF = bFGF (Homo sapiens, UniProt P09038); conditions: in vitro (Wang et al., 1997); cited from earlier work
[7] = 10 mg/kg daily s.c., end of 15-day treatment
[8] = 50 mg/kg i.p. once a day for 9 days, vs control
[9] = 50 mg/kg i.p. once a day for 9 days

bFGF, sequence (P09038 143-288, species assumed): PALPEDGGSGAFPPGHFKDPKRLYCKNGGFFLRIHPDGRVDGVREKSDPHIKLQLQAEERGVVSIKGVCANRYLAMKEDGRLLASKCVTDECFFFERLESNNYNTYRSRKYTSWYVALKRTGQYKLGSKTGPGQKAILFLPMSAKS

For Acharan sulfate [AS], the “% inhibition” value ([1]; 5 μg/egg) was 48.3%, the Eggs showing antiangiogenesis ([1]; 5 μg/egg, 29 eggs tested) was 14 and the “% inhibition” value ([1]; 10 μg/egg) was 55.6%. The Eggs showing antiangiogenesis ([1]; 10 μg/egg, 27 eggs tested) was 15, the “vessel induction in matrigel” value ([2]; fifty micrograms of AS in combination with bFGF and heparin) was “slightly prevented the vessel induction” and the “Hb concentration inside the matrigel plug” value ([2]; fifty micrograms of AS with bFGF and heparin, s.c., seven days, bFGF and heparin alone 11.8, control 0.3) was “about 8.6 g/dl”. For the same compound, the growth inhibition ([3]; 1 μg/ml) was 15.2%, the growth inhibition ([3]; 10 μg/ml) was 24.9% and the “cytotoxic effect on CPAE cell viability” value ([3]; increasing concentrations, data not shown) was “no cytotoxic effect”. The tumor volume [4, 7] was 3049.2 mm^3, the “mean tumor weight reduction” value ([4]; 10 mg/kg s.c.) was 37.8% and the tumor weight ([4]; 10 mg/kg s.c.) was 2.8 ± 0.2 g. For the same compound, the “tumor growth inhibited (volume)” value ([4]; 30 mg/kg daily s.c., end of 15-day treatment, vs saline) was 38.1%, the tumor volume ([4]; 30 mg/kg daily s.c., end of 15-day treatment) was 2809.3 mm^3 and the “mean tumor weight reduction” value ([4]; 30 mg/kg s.c.) was 48.9%. The tumor weight ([4]; 30 mg/kg s.c.) was 2.3 ± 0.2 g, the “body weight of mice over the course of treatment” value ([4]; 10 and 30 mg/kg s.c., 15 days) was “did not lose weight” and the tumor volume inhibited (sarcoma 180; [8]) was 45.0%. The tumor weight inhibited (sarcoma 180; [8]) was 39.6%, the tumor weight (sarcoma 180; [9]) was 4.3 ± 0.1 g and the tumor volume (sarcoma 180; [9]) was 4799±345.2 mm^3. For the same compound, the “lifespan increased against the control group” value ([5]; 30 mg/kg/day for 9 consecutive days) was 1.5 fold, the median survival time ([5]; 30 mg/kg/day for 9 consecutive days, control 22.4±2.2) was 34.3 ± 2.6 days and the “lifespan prolonged against the control group” value ([5]; 50 mg/kg/day for 9 consecutive days) was 1.8 fold. For the same compound, the median survival time ([5]; 50 mg/kg/day for 9 consecutive days, control 22.4±2.2) was 40.6 ± 3.1 days, the antiprotease activity (matrix metalloprotease) was “no detectable antiprotease activity” and the “tumor growth inhibited (volume)” value [6, 7] was 32.8%. For the same compound, the “effect on heparin's bFGF mitogenicity” value (bFGF) was “interfered with heparin's bFGF mitogenicity in vitro”.

In the case of CC1=C(/C=C/C(C)=C/C=C/C(C)=C/C(=O)O)C(C)(C)CCC1 [Retinoic acid, all-trans-retinoic acid, reference compound], the “% inhibition” value ([1]; 1 μg/egg) is reported as 80% and the Eggs showing antiangiogenesis ([1]; 1 μg/egg, 25 eggs tested) is reported as 20.

With COc1cccc2c1C(=O)c1c(O)c3c(c(O)c1C2=O)C[C@@](O)(C(=O)CO)C[C@@H]3O[C@H]1C[C@H](N)[C@H](O)[C@H](C)O1 [Doxorubicin] the “loss of weight of treated mice” value ([6]; 10 mg/kg i.v. every five day, compared with control mice) was “marked”, the tumor weight reduction ([6]; 10 mg/kg i.v. every five day, day 21, vs saline) was 68.0% and the tumor weight ([6]; 10 mg/kg i.v. every five day, day 21, saline 4.5±0.7) was 1.6 ± 0.2 g. For the same compound, the injection area ([6]; 10 mg/kg i.v. every five day, over the treatment) was “significantly damaged”, the “tumor growth inhibited (volume)” value ([6]; 10 mg/kg i.v. every five day) was 62.0% and the tumor volume ([6]; 10 mg/kg i.v. every five day, saline 4534.4) was 1721.6 mm^3.

In the case of O=c1[nH]cc(F)c(=O)[nH]1 [5-FU, 5-fluorouracil], the tumor weight inhibited (sarcoma 180; 25 mg/kg i.p. once a day for 9 days, vs control) is reported as 75.1% and 55.8%, the tumor weight (sarcoma 180; 25 mg/kg i.p. once a day for 9 days) is reported as 1.8 ± 0.3 g and 3.1 ± 0.3 g and the tumor volume decreased (sarcoma 180; 5-FU 25 mg/kg i.p. once a day for 9 days, vs control) is reported as 82.1%. The tumor volume (sarcoma 180; 5-FU 25 mg/kg i.p. once a day for 9 days) was 1572±201.5 mm^3 and the “median survival time (MST)” value ([5]; 25 mg/kg, control 22.4±2.2) was 42.8 ± 4.2 days.
